Experimental data reported in PubChem BioAssay (NCI).
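Interpolation was linear, between the two tested concentrations surrounding the appropriate level; five concentrations were tested over 48 hours in 96-well plates. GI50 is the concentration that inhibits growth by half. Definition used: TGI = concentration required for complete inhibition of growth.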

Tests used:
Test in all cases: inhibition of tumour cell growth, NCI panel, 48 h
[1] = system: OVCAR-5 ovarian
[2] = system: HCT-15 colon
[3] = system: EKVX NSCLC
[4] = system: RPMI-8226 leukemia
[5] = system: HT29 colon
[6] = system: IGROV1 ovarian
[7] = system: NCI/ADR-RES ovarian
[8] = system: U251 CNS
[9] = system: CAKI-1 renal
[10] = system: SR leukemia
[11] = system: SW-620 colon
[12] = system: A498 renal
[13] = system: BT-549 breast
[14] = system: SF-295 CNS
[15] = system: LOX IMVI melanoma
[16] = system: A549 NSCLC
[17] = system: SK-OV-3 ovarian
[18] = system: RXF 393 renal
[19] = system: SNB-75 CNS
[20] = system: SNB-19 CNS
[21] = system: MOLT-4 leukemia
[22] = system: COLO 205 colon
[23] = system: SK-MEL-28 melanoma
[24] = system: TK-10 renal
[25] = system: DU-145 prostate
[26] = system: HOP-62 NSCLC
[27] = system: UO-31 renal
[28] = system: OVCAR-8 ovarian
[29] = system: HCT-116 colon
[30] = system: NCI-H460 lung
[31] = system: UACC-62 melanoma
[32] = system: SN12C renal
[33] = system: OVCAR-3 ovarian
[34] = system: OVCAR-4 ovarian
[35] = system: CCRF-CEM leukemia
[36] = system: PC-3 prostate
[37] = system: MDA-MB-435
[38] = system: SK-MEL-5 melanoma
[39] = system: M14 melanoma
[40] = system: MDA-MB-231 breast
[41] = system: SF-268 CNS
[42] = system: HL-60(TB) leukemia
[43] = system: K-562 leukemia
[44] = system: ACHN renal
[45] = system: MCF7 breast
[46] = system: SF-539 CNS
[47] = system: NCI-H23 lung
[48] = system: NCI-H226 lung
[49] = system: NCI-H522 lung
[50] = system: KM12 colon
[51] = system: UACC-257 melanoma
[52] = system: 786-0 renal
[53] = system: HS 578T breast
[54] = system: SK-MEL-2 melanoma
[55] = system: HCC-2998 colon

For `O=C1OCC2=C1C(c1cccc(Cl)c1)c1cc3c(cc1N2CCO)OCO3` (configuration not stated), the GI50 [1] was 1260 nM, the TGI [1] was greater than 100000 nM and the GI50 [2] was 428 nM. It also gave a TGI [2] greater than 100000 nM, a GI50 [3] of 2590 nM and a TGI [3] greater than 87200 nM. The GI50 [4] was 535 nM, the TGI [4] was 35800 nM and the GI50 [5] was 364 nM. For the same compound, the TGI [5] was 4730 nM, the GI50 [6] was 2790 nM and the TGI [6] was greater than 74400 nM. For the same compound, the GI50 [7] was 301 nM, the TGI [7] was greater than 41000 nM and the GI50 [8] was 383 nM. It also gave a TGI [8] of 17700 nM, a GI50 [9] of 216 nM and a TGI [9] of 22600 nM. For the same compound, the GI50 [10] was 359 nM, the TGI [10] was 70400 nM and the GI50 [11] was 358 nM. The TGI [11] was greater than 100000 nM, the GI50 [12] was 230 nM and the TGI [12] was 2550 nM. It also gave a GI50 [13] of 603 nM, a GI50 [14] of 260 nM and a TGI [14] of 22400 nM. It also gave a GI50 [15] of 600 nM, a TGI [15] of 27000 nM and a GI50 [16] of 498 nM. The TGI [16] was 33500 nM, the GI50 [17] was 412 nM and the TGI [17] was 10500 nM. The GI50 [18] was 278 nM, the GI50 [19] was 281 nM and the TGI [19] was greater than 100000 nM. It also gave a GI50 [20] of 784 nM, a TGI [20] greater than 100000 nM and a GI50 [21] of 1140 nM. It also gave a TGI [21] of 97800 nM, a GI50 [22] of 360 nM and a TGI [22] of 1380 nM. It also gave a GI50 [23] of 755 nM, a TGI [23] greater than 100000 nM and a GI50 [24] of 17700 nM. For the same compound, the TGI [24] was greater than 100000 nM, the GI50 [25] was 512 nM and the TGI [25] was 16900 nM. The GI50 [26] was 481 nM, the TGI [26] was 57700 nM and the GI50 [27] was 465 nM. It also gave a TGI [27] greater than 65400 nM, a GI50 [28] of 503 nM and a TGI [28] greater than 65800 nM. For the same compound, the GI50 [29] was 466 nM, the TGI [29] was greater than 36300 nM and the GI50 [30] was 414 nM. The TGI [30] was greater than 35300 nM, the GI50 [31] was 360 nM and the TGI [31] was greater than 44600 nM. For the same compound, the GI50 [32] was 817 nM, the TGI [32] was greater than 63700 nM and the GI50 [33] was 270 nM. The TGI [33] was 811 nM, the GI50 [34] was 696 nM and the TGI [34] was greater than 100000 nM. The GI50 [35] was 527 nM, the TGI [35] was greater than 100000 nM and the GI50 [36] was 381 nM. It also gave a TGI [36] greater than 43700 nM, a GI50 [37] of 38.3 nM and a TGI [37] of 233 nM. The GI50 [38] was 256 nM, the TGI [38] was 12500 nM and the GI50 [39] was 360 nM. It also gave a TGI [39] greater than 22500 nM, a GI50 [40] of 1660 nM and a TGI [40] of 14400 nM. It also gave a GI50 [41] of 700 nM, a TGI [41] of 34600 nM and a GI50 [42] of 328 nM. For the same compound, the TGI [42] was 3700 nM, the GI50 [43] was 354 nM and the TGI [43] was greater than 100000 nM. It also gave a GI50 [44] of 785 nM, a TGI [44] greater than 100000 nM and a GI50 [45] of 313 nM. The TGI [45] was greater than 100000 nM, the GI50 [46] was 303 nM and the GI50 [47] was 502 nM. The TGI [47] was greater than 100000 nM, the GI50 [48] was 753 nM and the TGI [48] was 20000 nM. It also gave a GI50 [49] of 228 nM, a TGI [49] of 16200 nM and a GI50 [50] of 398 nM. The TGI [50] was 29600 nM, the GI50 [51] was 256 nM and the TGI [51] was greater than 44500 nM. For the same compound, the GI50 [52] was 558 nM, the TGI [52] was greater than 41800 nM and the GI50 [53] was 445 nM. For the same compound, the TGI [53] was greater than 58200 nM, the GI50 [54] was 2440 nM and the TGI [54] was greater than 44300 nM. For the same compound, the GI50 [55] was 1070 nM and the TGI [55] was 14300 nM.
